From US20250215029A1 (Recludix Pharma, Inc., priority 2022, published 2025)

Target: T1, pY705-STAT3 in PBMC (Homo sapiens, UniProt P40763)
T1 construct: Cryopreserved Peripheral Blood Mononuclear Cells (PBMC) are from AllCells; host or cells: cryopreserved PBMC
Experiment: MSD-pSTAT-PBMC Assay (pSTAT3, IL-6 stimulated)
Assay type: cell-based
Conditions: PBMC, compound 3 hrs, then 10 ng/mL IL-6 for 10 min; Table 115; read-out: STAT3
Procedure, shortened: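 pY705-STAT3 was detected electrochemiluminescently on total-STAT3 capture plates, using lysates of human PBMCs given compound for 3 h and then IL-6 (10 ng/mL, 10 min). Values were background-subtracted against unstimulated wells and set relative to DMSO. IC50 was fitted with variable slope.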

T1 sequence (P40763 whole entry): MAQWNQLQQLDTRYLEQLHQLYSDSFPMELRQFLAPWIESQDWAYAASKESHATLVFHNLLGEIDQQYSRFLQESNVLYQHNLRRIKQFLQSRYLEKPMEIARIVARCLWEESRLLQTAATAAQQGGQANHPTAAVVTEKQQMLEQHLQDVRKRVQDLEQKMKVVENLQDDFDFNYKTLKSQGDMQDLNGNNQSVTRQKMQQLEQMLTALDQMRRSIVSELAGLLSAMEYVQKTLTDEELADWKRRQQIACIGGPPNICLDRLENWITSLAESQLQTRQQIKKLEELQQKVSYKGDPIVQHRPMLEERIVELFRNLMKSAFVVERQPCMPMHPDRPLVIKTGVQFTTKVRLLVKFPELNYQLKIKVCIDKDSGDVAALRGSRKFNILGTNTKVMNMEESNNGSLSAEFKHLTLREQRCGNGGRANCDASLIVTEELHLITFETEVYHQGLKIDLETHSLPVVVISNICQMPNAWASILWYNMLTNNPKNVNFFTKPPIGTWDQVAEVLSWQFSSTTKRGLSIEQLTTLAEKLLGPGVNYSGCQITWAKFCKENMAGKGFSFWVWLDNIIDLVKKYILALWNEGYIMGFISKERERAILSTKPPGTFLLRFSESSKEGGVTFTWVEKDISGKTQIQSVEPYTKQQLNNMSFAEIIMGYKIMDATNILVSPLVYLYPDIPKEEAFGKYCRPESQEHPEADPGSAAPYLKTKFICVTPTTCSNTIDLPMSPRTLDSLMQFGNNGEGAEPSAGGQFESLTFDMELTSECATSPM

Row | SMILES | IC50
1 | CCCOC(=O)[C@H](C)NP(=O)(Oc1ccccc1)[C@@H](F)c1ccc2sc(C(=O)N[C@H]3C[C@@H](C)C[C@H]4CC[C@@H](C(=O)N5CC(c6cncnc6N6CCC6)C5)N4C3=O)cc2c1 (stereo partly drawn) [Compound 1077] | < 100 nM
2 | CCCOC(=O)[C@H](C)NP(=O)(Oc1ccccc1)[C@H](F)c1ccc2sc(C(=O)N[C@H]3CCC[C@H]4CC[C@@H](C(=O)N5CC(c6cncnc6N6CCC6)C5)N4C3=O)cc2c1 (stereo partly drawn) [Compound 1076] | < 100 nM
3 | CC(C)CC(=O)SCCOP(=O)(OCCSC(=O)CC(C)C)C(F)(F)c1ccc2sc(C(=O)N[C@H]3CCC[C@H]4CC[C@@H](C(=O)N5CC(c6nncn6C)C5)N4C3=O)cc2c1 [Compound 966, S,S′-((((difluoro(2-(((3S,6S,9aS)-3-(3-(4-methyl-4H-1,2,4-triazol-3-yl)azetidine-1-carbonyl)-5-oxooctahydro-1H-pyrrolo[1,2-a]azepin-6-yl)carbamoyl)benzo [b]thiophen-5-yl)methyl)phosphoryl)bis(oxy))bis(ethane-2,1-diyl)) bis(3-methylbutanethioate)] | < 100 nM
4 | CCCOC(=O)[C@H](C)N[P@](=O)(Oc1ccccc1)[C@@H](F)c1ccc2sc(C(=O)N[C@H]3C[C@@H](C)C[C@H]4CC[C@@H](C(=O)N5CC(c6cnccc6OC(C)C)C5)N4C3=O)cc2c1 (single isomer, unassigned) [Compound 1033] | < 100 nM
5 | CCCOC(=O)[C@H](C)NP(=O)(Oc1ccccc1)[C@H](F)c1ccc2sc(C(=O)N[C@H]3C[C@@H](C)C[C@H]4CC[C@@H](C(=O)N5CC(c6cncnc6N6CCC6)C5)N4C3=O)cc2c1 (stereo partly drawn) [Compound 1078] | < 100 nM
6 | CCCCOC(=O)[C@H](C)NP(=O)(Oc1ccccc1)C(F)(F)c1ccc2sc(C(=O)N[C@H]3CCC[C@H]4CC[C@@H](C(=O)N5CC(c6cccnc6)C5)N4C3=O)cc2c1 (stereo partly drawn) [Compound 254, butyl ((difluoro(2-(((3S,6S,9aS)-5-oxo-3-(3-(pyridin-3-yl)azetidine-1-carbonyl)octahydro-1H-pyrrolo[1,2-a]azepin-6-yl)carbamoyl)benzo [b]thiophen-5-yl)methyl)(phenoxy)phosphoryl)-L-alaninate] | 100 to 1000 nM
7 | CCCOC(=O)[C@H](C)NP(=O)(Oc1ccccc1)[C@H](F)c1ccc2sc(C(=O)N[C@H]3CCC[C@H]4CC[C@@H](C(=O)N5CC(c6cncnc6N6CC[C@H]6COC)C5)N4C3=O)cc2c1 (stereo partly drawn) [Compound 1018, propyl (((S)-fluoro(2-(((3S,6S,9aS)-3-(3-(4-((S)-2-(methoxymethyl)azetidin-1-yl)pyrimidin-5-yl)azetidine-1-carbonyl)-5-oxooctahydro-1H-pyrrolo[1,2-a]azepin-6-yl)carbamoyl)benzo [b]thiophen-5-yl)methyl)(phenoxy)phosphoryl)-L-alaninate] | < 100 nM
8 | O=C(N[C@H]1CCC[C@H]2CC[C@@H](C(=O)N3CC(c4cccnc4)C3)N2C1=O)c1cc2cc(CP(=O)(N[C@@H](CCc3ccccc3)C(=O)OCc3ccccc3)Oc3ccccc3)ccc2s1 (stereo partly drawn) [Compound 401, benzyl (2S)-2-((((2-(((3S,6S,9aS)-5-oxo-3-(3-(pyridin-3-yl)azetidine-1-carbonyl)octahydro-1H-pyrrolo[1,2-a]azepin-6-yl)carbamoyl)benzo [b]thiophen-5-yl)methyl)(phenoxy)phosphoryl)amino)-4-phenylbutanoate] | > 3000 nM
9 | CCCOC(=O)[C@H](C)NP(=O)(Oc1ccccc1)[C@H](F)c1ccc2sc(C(=O)N[C@H]3CCC[C@H]4CC[C@@H](C(=O)N5CC(c6cnccc6N6CC(OC)C6)C5)N4C3=O)cc2c1 (stereo partly drawn) [Compound 1063, propyl (((S)-fluoro(2-(((3S,6S,9aS)-3-(3-(4-(3-methoxyazetidin-1-yl)pyridin-3-yl)azetidine-1-carbonyl)-5-oxooctahydro-1H-pyrrolo[1,2-a]azepin-6-yl)carbamoyl)benzo [b]thiophen-5-yl)methyl)(phenoxy)phosphoryl)-L-alaninate] | < 100 nM
10 | CCCOC(=O)[C@H](C)NP(=O)(Cc1ccc2sc(C(=O)N[C@H]3CCC[C@H]4CC[C@@H](C(=O)N5CC(c6cnc(OC)cc6F)C5)N4C3=O)cc2c1)Oc1ccccc1 (stereo partly drawn) [Compound 271, propyl (((2-(((3S,6S,9aS)-3-(3-(4-fluoro-6-methoxypyridin-3-yl)azetidine-1-carbonyl)-5-oxooctahydro-1H-pyrrolo[1,2-a]azepin-6-yl)carbamoyl)benzo [b]thiophen-5-yl)methyl)(phenoxy)phosphoryl)-L-alaninate] | 100 to 1000 nM
11 | CCCOC(=O)[C@H](C)NP(=O)(Oc1ccccc1)[C@@H](F)c1ccc2sc(C(=O)N[C@H]3CCC[C@H]4CC[C@@H](C(=O)N[C@H]5CN(c6ncc[nH]6)C[C@@H]5F)N4C3=O)cc2c1 (stereo partly drawn) [Compound 1030, propyl (((R)-fluoro(2-(((3S,6S,9aS)-3-(((3S,4S)-4-fluoro-1-(1H-imidazol-2-yl)pyrrolidin-3-yl)carbamoyl)-5-oxooctahydro-1H-pyrrolo[1,2-a]azepin-6-yl)carbamoyl)benzo [b]thiophen-5-yl)methyl)(phenoxy)phosphoryl)-L-alaninate] | > 3000 nM
12 | CCCOC(=O)[C@H](C)NP(=O)(Cc1ccc2sc(C(=O)N[C@H]3CCC[C@H]4CC[C@@H](C(=O)N5CC(c6cccnc6)C5)N4C3=O)cc2c1)Oc1c(C)cccc1C (stereo partly drawn) [Compound 293, propyl ((2,6-dimethylphenoxy) ((2-(((3S,6S,9aS)-5-oxo-3-(3-(pyridin-3-yl)azetidine-1-carbonyl)octahydro-1H-pyrrolo[1,2-a]azepin-6-yl)carbamoyl)benzo [b]thiophen-5-yl)methyl)phosphoryl)-L-alaninate] | < 100 nM
13 | CCCOC(=O)C1(NP(=O)(Cc2ccc3sc(C(=O)N[C@H]4CCC[C@H]5CC[C@@H](C(=O)N6CC(c7cccnc7)C6)N5C4=O)cc3c2)Oc2ccccc2)CC1 (stereo partly drawn) [Compound 434, propyl 1-((((2-(((3S,6S,9aS)-5-oxo-3-(3-(pyridin-3-yl)azetidine-1-carbonyl)octahydro-1H-pyrrolo[1,2-a]azepin-6-yl)carbamoyl)benzo [b]thiophen-5-yl)methyl)(phenoxy)phosphoryl)amino) cyclopropane-1-carboxylate] | 100 to 1000 nM
14 | CCCOC(=O)[C@H](C)NP(=O)(Cc1ccc2sc(C(=O)N[C@H]3CCC[C@H]4CC[C@@H](C(=O)N5CC(c6cncnc6N6CC[C@H]6COC)C5)N4C3=O)cc2c1)Oc1ccccc1 (stereo partly drawn) [Compound 1072, propyl (((2-(((3S,6S,9aS)-3-(3-(4-((S)-2-(methoxymethyl)azetidin-1-yl)pyrimidin-5-yl)azetidine-1-carbonyl)-5-oxooctahydro-1H-pyrrolo[1,2-a]azepin-6-yl)carbamoyl)benzo [b]thiophen-5-yl)methyl)(phenoxy)phosphoryl)-L-alaninate] | < 100 nM
15 | CCCOC(=O)[C@H](C)NP(=O)(Oc1ccccc1)[C@@H](F)c1ccc2sc(C(=O)N[C@H]3CCC[C@H]4CC[C@@H](C(=O)N5CC(c6cnccc6N6CCC6)C5)N4C3=O)cc2c1 (stereo partly drawn) [Compound 1028, propyl (((R)-(2-(((3S,6S,9aS)-3-(3-(4-(azetidin-1-yl)pyridin-3-yl)azetidine-1-carbonyl)-5-oxooctahydro-1H-pyrrolo[1,2-a]azepin-6-yl)carbamoyl)benzo [b]thiophen-5-yl)fluoromethyl) (phenoxy)phosphoryl)-L-alaninate] | 100 to 1000 nM
16 | CCCOC(=O)[C@H](C)N[P@](=O)(Oc1ccccc1)[C@H](F)c1ccc2sc(C(=O)N[C@H]3CCC[C@H]4CC[C@@H](C(=O)N5CC(c6cnccc6F)C5)N4C3=O)cc2c1 (single isomer, unassigned) [Compound 998] | < 100 nM
17 | COc1ccncc1C1CN(C(=O)[C@@H]2CC[C@@H]3CCC[C@H](NC(=O)c4cc5cc([C@H](F)[P@@](=O)(N[C@@H](C)C(=O)OC(C)C)Oc6ccccc6)ccc5s4)C(=O)N32)C1 (single isomer, unassigned) [Compound 1023] | 100 to 1000 nM
18 | CCCOC(=O)[C@H](Cc1ccccn1)NP(=O)(Cc1ccc2sc(C(=O)N[C@H]3CCC[C@H]4CC[C@@H](C(=O)N5CC(c6cccnc6)C5)N4C3=O)cc2c1)Oc1ccccc1 (stereo partly drawn) [Compound 432, propyl (2S)-2-((((2-(((3S,6S,9aS)-5-oxo-3-(3-(pyridin-3-yl)azetidine-1-carbonyl)octahydro-1H-pyrrolo[1,2-a]azepin-6-yl)carbamoyl)benzo [b]thiophen-5-yl)methyl)(phenoxy)phosphoryl)amino)-3-(pyridin-2-yl)propanoate] | 100 to 1000 nM
19 | CCCOC(=O)[C@H](C)N[P@@](=O)(Oc1ccccc1)[C@@H](F)c1ccc2sc(C(=O)N[C@H]3CCC[C@H]4CC[C@@H](C(=O)N5CC(c6cnccc6C)C5)N4C3=O)cc2c1 (single isomer, unassigned) [Compound 1027] | < 100 nM
20 | CCCOC(=O)[C@H](C)NP(=O)(Oc1ccccc1)C(F)(F)c1ccc2sc(C(=O)N[C@H]3CCC[C@H]4CC[C@@H](C(=O)N5CC(c6cccnc6)C5)N4C3=O)cc2c1 (stereo partly drawn) [Compound 400, propyl ((difluoro(2-(((3S,6S,9aS)-5-oxo-3-(3-(pyridin-3-yl)azetidine-1-carbonyl)octahydro-1H-pyrrolo[1,2-a]azepin-6-yl)carbamoyl)benzo [b]thiophen-5-yl)methyl)(phenoxy)phosphoryl)-L-alaninate] | 100 to 1000 nM
21 | Cn1cnnc1C1CN(C(=O)[C@@H]2CC[C@@H]3CCC[C@H](NC(=O)c4cc5cc(C(F)(F)P(=O)(OCCSC(=O)C(C)(C)C)OCCSC(=O)C(C)(C)C)ccc5s4)C(=O)N32)C1 [Compound 967, S,S′-((((difluoro(2-(((3S,6S,9aS)-3-(3-(4-methyl-4H-1,2,4-triazol-3-yl)azetidine-1-carbonyl)-5-oxooctahydro-1H-pyrrolo[1,2-a]azepin-6-yl)carbamoyl)benzo [b]thiophen-5-yl)methyl)phosphoryl)bis(oxy))bis(ethane-2,1-diyl)) bis(2,2-dimethyl-propanethioate)] | < 100 nM
